Assay results published in patent US20080027033A1, “Method and Composition for Treatment of Cutaneous Lesions” (Acrux DDS Pty Ltd, priority 2003, published 2008).

Assay: diffusion across skin after transdermal spray administration
Details: effect of adding octyl salicylate to the transdermal spray formulation (Example 1); predicted cumulative amount, FIGS. 1 and 2

- amount diffusing across the skin over 24 hours: significant marked increase
SMILES: C[C@]12CC[C@@H]3c4ccc(O)cc4CC[C@H]3[C@@H]1CC[C@@H]2O [estradiol]
